Experimental data taken from the NIST ThermoML archive (doi:10.1016/j.jct.2005.03.019).

Assay: xn = mol fraction of the nth substance listed
Settings: 101 kPa, Liquid, Vibrating tube method

C=Cc1ccccc1 [styrene] + CC1COC(=O)O1
Settings	mass density [kg/m3]
293.15 K, x1 = 0.0537	1180.1
293.15 K, x1 = 0.1389	1149.3
293.15 K, x1 = 0.1832	1134
293.15 K, x1 = 0.2341	1116.8
293.15 K, x1 = 0.294	1097.3
293.15 K, x1 = 0.3867	1068.4
293.15 K, x1 = 0.4379	1053.1
293.15 K, x1 = 0.5089	1032.5
293.15 K, x1 = 0.5799	1012.6
293.15 K, x1 = 0.6328	998.3
293.15 K, x1 = 0.6978	981.1
293.15 K, x1 = 0.7534	966.7
293.15 K, x1 = 0.8136	951.5
293.15 K, x1 = 0.8738	936.6
293.15 K, x1 = 0.9348	921.7
293.15 K, x1 = 1	906
303.15 K, x1 = 0.0613	1158.4
303.15 K, x1 = 0.1289	1134.8
303.15 K, x1 = 0.1743	1119.6
303.15 K, x1 = 0.2389	1098.5
303.15 K, x1 = 0.2976	1080.1
303.15 K, x1 = 0.3681	1058.8
303.15 K, x1 = 0.4178	1044.3
303.15 K, x1 = 0.4622	1031.7
303.15 K, x1 = 0.5239	1014.6
303.15 K, x1 = 0.5919	996.3
303.15 K, x1 = 0.6521	980.7
303.15 K, x1 = 0.7244	962.4
303.15 K, x1 = 0.7932	945.4
303.15 K, x1 = 0.8472	932.4
303.15 K, x1 = 0.9247	914
303.15 K, x1 = 1	896.4
313.15 K, x1 = 0.0473	1144.7
313.15 K, x1 = 0.1255	1118.3
313.15 K, x1 = 0.1922	1096.7
313.15 K, x1 = 0.2467	1079.7
313.15 K, x1 = 0.2844	1068.3
313.15 K, x1 = 0.3388	1052.2
313.15 K, x1 = 0.4032	1033.8
313.15 K, x1 = 0.4789	1013
313.15 K, x1 = 0.5376	997.4
313.15 K, x1 = 0.6198	976.4
313.15 K, x1 = 0.6638	965.4
313.15 K, x1 = 0.7398	946.9
313.15 K, x1 = 0.8133	929.5
313.15 K, x1 = 0.8756	915.1
313.15 K, x1 = 0.9456	899.1
313.15 K, x1 = 1	886.9
323.15 K, x1 = 0.0598	1122.3
323.15 K, x1 = 0.1431	1095.3
323.15 K, x1 = 0.1846	1082.4
323.15 K, x1 = 0.2572	1060.6
323.15 K, x1 = 0.3312	1039.2
323.15 K, x1 = 0.3841	1024.5
323.15 K, x1 = 0.4423	1008.8
323.15 K, x1 = 0.4928	995.6
323.15 K, x1 = 0.5634	977.7
323.15 K, x1 = 0.6143	965.1
323.15 K, x1 = 0.6635	953.3
323.15 K, x1 = 0.7187	940.3
323.15 K, x1 = 0.7749	927.3
323.15 K, x1 = 0.8353	913.6
323.15 K, x1 = 0.9244	893.8
323.15 K, x1 = 1	877.3
333.15 K, x1 = 0.0534	1106.6
333.15 K, x1 = 0.113	1087.7
333.15 K, x1 = 0.1682	1070.9
333.15 K, x1 = 0.2134	1057.5
333.15 K, x1 = 0.2843	1037.2
333.15 K, x1 = 0.3587	1016.8
333.15 K, x1 = 0.4238	999.7
333.15 K, x1 = 0.479	985.6
333.15 K, x1 = 0.5359	971.5
333.15 K, x1 = 0.5831	960.1
333.15 K, x1 = 0.6811	937.2
333.15 K, x1 = 0.7529	920.9
333.15 K, x1 = 0.8243	905.2
333.15 K, x1 = 0.8871	891.7
333.15 K, x1 = 0.9424	879.9
333.15 K, x1 = 1	867.8
343.15 K, x1 = 0.0648	1085.6
343.15 K, x1 = 0.1198	1068.9
343.15 K, x1 = 0.1823	1050.6
343.15 K, x1 = 0.2398	1034.3
343.15 K, x1 = 0.318	1013
343.15 K, x1 = 0.3832	996
343.15 K, x1 = 0.4429	981
343.15 K, x1 = 0.5138	963.8
343.15 K, x1 = 0.5824	947.6
343.15 K, x1 = 0.6529	931.6
343.15 K, x1 = 0.7039	920.3
343.15 K, x1 = 0.7735	905.2
343.15 K, x1 = 0.8423	890.7
343.15 K, x1 = 0.8814	882.5
343.15 K, x1 = 0.9476	868.9
343.15 K, x1 = 1	858.2
353.15 K, x1 = 0.0621	1069.6
353.15 K, x1 = 0.1257	1051
353.15 K, x1 = 0.1644	1040
353.15 K, x1 = 0.2312	1021.6
353.15 K, x1 = 0.3042	1002.2
353.15 K, x1 = 0.3718	985
353.15 K, x1 = 0.4423	967.7
353.15 K, x1 = 0.5021	953.5
353.15 K, x1 = 0.5539	941.6
353.15 K, x1 = 0.6243	925.9
353.15 K, x1 = 0.6912	911.4
353.15 K, x1 = 0.752	898.5
353.15 K, x1 = 0.8132	885.9
353.15 K, x1 = 0.8642	875.5
353.15 K, x1 = 0.9248	863.4
353.15 K, x1 = 1	848.6

CC1COC(=O)O1 (centres undefined) [4-methyl-1,3-dioxolan-2-one] + CCc1ccccc1
Settings	mass density [kg/m3]
293.15 K, x2 = 0	1200.3
293.15 K, x2 = 0.0592	1173.5
293.15 K, x2 = 0.1139	1149.9
293.15 K, x2 = 0.1749	1124.6
293.15 K, x2 = 0.2471	1096.1
293.15 K, x2 = 0.3274	1066.1
293.15 K, x2 = 0.3856	1045.5
293.15 K, x2 = 0.4527	1022.7
293.15 K, x2 = 0.5049	1005.6
293.15 K, x2 = 0.5672	986.1
293.15 K, x2 = 0.6368	965.1
293.15 K, x2 = 0.6978	947.4
293.15 K, x2 = 0.7529	932
293.15 K, x2 = 0.8149	915.2
293.15 K, x2 = 0.8742	899.6
293.15 K, x2 = 0.9368	883.5
303.15 K, x2 = 0	1180.6
303.15 K, x2 = 0.0489	1159.1
303.15 K, x2 = 0.1278	1126.2
303.15 K, x2 = 0.1974	1098.6
303.15 K, x2 = 0.2484	1079.4
303.15 K, x2 = 0.3149	1055.2
303.15 K, x2 = 0.3759	1034.1
303.15 K, x2 = 0.4349	1014.5
303.15 K, x2 = 0.4876	997.7
303.15 K, x2 = 0.5498	978.5
303.15 K, x2 = 0.5922	965.9
303.15 K, x2 = 0.659	946.7
303.15 K, x2 = 0.7249	928.4
303.15 K, x2 = 0.7941	910
303.15 K, x2 = 0.8578	893.5
303.15 K, x2 = 0.9247	876.8
313.15 K, x2 = 0	1161.3
313.15 K, x2 = 0.0662	1133.7
313.15 K, x2 = 0.1258	1110
313.15 K, x2 = 0.1835	1088
313.15 K, x2 = 0.2458	1065.3
313.15 K, x2 = 0.3342	1034.7
313.15 K, x2 = 0.3958	1014.5
313.15 K, x2 = 0.4592	994.6
313.15 K, x2 = 0.5135	978.2
313.15 K, x2 = 0.5629	963.7
313.15 K, x2 = 0.6248	946.2
313.15 K, x2 = 0.6724	933.2
313.15 K, x2 = 0.7383	915.7
313.15 K, x2 = 0.7873	903.2
313.15 K, x2 = 0.8534	886.7
313.15 K, x2 = 0.9378	866.4
323.15 K, x2 = 0	1142.4
323.15 K, x2 = 0.0635	1117.4
323.15 K, x2 = 0.1139	1098.3
323.15 K, x2 = 0.1729	1076.8
323.15 K, x2 = 0.2384	1054
323.15 K, x2 = 0.3248	1025.4
323.15 K, x2 = 0.3859	1006.2
323.15 K, x2 = 0.4523	986.2
323.15 K, x2 = 0.5048	971
323.15 K, x2 = 0.5733	951.9
323.15 K, x2 = 0.6387	934.4
323.15 K, x2 = 0.7038	917.6
323.15 K, x2 = 0.7587	903.8
323.15 K, x2 = 0.8137	890.5
323.15 K, x2 = 0.8698	877.2
323.15 K, x2 = 0.9247	864.5
333.15 K, x2 = 0	1124
333.15 K, x2 = 0.0587	1102.4
333.15 K, x2 = 0.1328	1076.2
333.15 K, x2 = 0.1849	1058.6
333.15 K, x2 = 0.2489	1037.9
333.15 K, x2 = 0.3186	1016.2
333.15 K, x2 = 0.3767	998.9
333.15 K, x2 = 0.435	982.2
333.15 K, x2 = 0.4957	965.5
333.15 K, x2 = 0.5549	949.7
333.15 K, x2 = 0.6247	931.8
333.15 K, x2 = 0.6978	913.8
333.15 K, x2 = 0.7629	898.4
333.15 K, x2 = 0.8247	884.2
333.15 K, x2 = 0.8624	875.7
333.15 K, x2 = 0.9358	859.5
343.15 K, x2 = 0	1106
343.15 K, x2 = 0.0524	1088.2
343.15 K, x2 = 0.1125	1068.5
343.15 K, x2 = 0.1828	1046.3
343.15 K, x2 = 0.2398	1029.1
343.15 K, x2 = 0.3049	1010.2
343.15 K, x2 = 0.3673	992.8
343.15 K, x2 = 0.4348	974.7
343.15 K, x2 = 0.4817	962.6
343.15 K, x2 = 0.5428	947.3
343.15 K, x2 = 0.6048	932.3
343.15 K, x2 = 0.6721	916.5
343.15 K, x2 = 0.7498	899
343.15 K, x2 = 0.8247	882.7
343.15 K, x2 = 0.8827	870.5
343.15 K, x2 = 0.9478	857
353.15 K, x2 = 0	1088.4
353.15 K, x2 = 0.0629	1069.2
353.15 K, x2 = 0.1272	1050.2
353.15 K, x2 = 0.1947	1031
353.15 K, x2 = 0.2598	1013.3
353.15 K, x2 = 0.3138	999
353.15 K, x2 = 0.3945	978.6
353.15 K, x2 = 0.4629	962
353.15 K, x2 = 0.5148	949.8
353.15 K, x2 = 0.5749	936.1
353.15 K, x2 = 0.6345	923
353.15 K, x2 = 0.7039	908.2
353.15 K, x2 = 0.7635	895.8
353.15 K, x2 = 0.8137	885.7
353.15 K, x2 = 0.8642	875.7
353.15 K, x2 = 0.9248	863.9
